Experiments:
[1] = target: NA from influenza PR8 virus (Influenza A virus, UniProt P03468); assay: biochemical
[2] = system: influenza A and B viruses; type: cell-based

NA from influenza PR8 virus, sequence (P03468 whole entry, looked up): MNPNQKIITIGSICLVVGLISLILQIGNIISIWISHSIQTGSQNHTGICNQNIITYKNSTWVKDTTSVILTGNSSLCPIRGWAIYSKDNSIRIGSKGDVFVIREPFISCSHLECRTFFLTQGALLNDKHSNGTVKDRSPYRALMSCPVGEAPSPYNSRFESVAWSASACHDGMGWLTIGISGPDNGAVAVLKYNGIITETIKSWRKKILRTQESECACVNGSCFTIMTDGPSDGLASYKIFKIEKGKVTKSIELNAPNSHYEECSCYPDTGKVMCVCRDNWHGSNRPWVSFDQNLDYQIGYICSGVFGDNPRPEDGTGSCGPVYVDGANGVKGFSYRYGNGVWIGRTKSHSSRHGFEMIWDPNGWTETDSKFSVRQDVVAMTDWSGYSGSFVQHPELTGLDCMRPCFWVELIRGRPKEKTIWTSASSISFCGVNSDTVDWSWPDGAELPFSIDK

O=C(O)C1=CC(=C(c2ccc(O)c(C(=O)O)c2)c2ccc(O)c(C(=O)O)c2)C=CC1=O [ATA, Aurintricarboxylic acid]
IC50 [1]: 17 µM | replication after pre-incubation of virus with ATA [2]: inhibited replication of both WSN and H274Y viruses in a dose-responsive fashion

From publication PMC2792043 (PLoS ONE, 2009)
